Each block holds one sequence with its values, some of them ahead of it.
Biological target: T1, MyD88^TIR (Homo sapiens, UniProt Q99836)
T1 construct: MyD88 (residues 148–296); 6xHis; made in house; host or cells: E. coli BL21 (DE3)
Test: T‐Surf phage library (P8 and P3) selection against MyD88^TIR, four rounds, NGS read counts
Type: binding
Details: for P8_MyD88 Rank (after) / P8_MyD88 Rank (before): P8 library; for Population: P8_MyD88 pool: P8 T-Surf phage library, 4th round of selection against MyD88 TIR, share of NGS reads
Method in brief: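 Read counts come from NGS of phage pools enriched over four selection rounds on the plate‐coated TIR domain (5 µg mL^−1). Each round: 1 h phage binding at room temperature after 0.2% BSA blocking, Tween washes, acid elution, amplification in E. coli TG1 with M13KO7 helper.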

[1] = 4R selection against MyD88, rank after grouping
[2] = 4R selection against MyD88, rank before grouping
[3] = P8_MyD88: rank by count after grouping
[4] = P8_MyD88: rank by count before grouping
[5] = selection against MyD88, rank by count after grouping
[6] = selection against MyD88, rank by count before grouping
[7] = selection against MyD88, rank after grouping
[8] = selection against MyD88, rank before grouping
[9] = P8_MyD88: rank by NGS read count after grouping
[10] = P8_MyD88: rank by NGS read count before grouping
[11] = selection against MyD88 TIR, rank by count after grouping
[12] = selection against MyD88 TIR, rank by count before grouping

T1 sequence (Q99836 148-296): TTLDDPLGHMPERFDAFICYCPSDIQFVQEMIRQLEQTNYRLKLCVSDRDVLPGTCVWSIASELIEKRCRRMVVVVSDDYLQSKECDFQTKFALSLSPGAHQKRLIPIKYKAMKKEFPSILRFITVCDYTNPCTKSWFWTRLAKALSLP

Sequence: WALDLEWFYERLFSQM
P8_MyD88 Rank (after) [1]: 587
P8_MyD88 Rank (before) [2]: 1517

Sequence: WALEELRLIMELHSV
P8_MyD88 Rank (after) [7]: 504
P8_MyD88 Rank (before) [8]: 1525

Sequence: WALGELLQILQARERC
Rank (after) [9]: 943
Rank (before) [10]: 1408

Sequence: WALNELLEILKAREDI
Rank (after) [3]: 115
Rank (before) [4]: 123
Population: 0.0173%

Sequence: WALNELLEILYANETM
P8_MyD88 Rank (after) [1]: 663
P8_MyD88 Rank (before) [2]: 1535

Sequence: WALNELLQILHARELF
Population: 0.00617%

Sequence: WALNELVEIYQAYKEL
P8_MyD88 Rank (after) [11]: 273
P8_MyD88 Rank (before) [12]: 521

Sequence: WALQELLEILKANREL
Rank (after) [3]: 149
Rank (before) [4]: 168
Population: 0.00848%

Sequence: WALRELEAILQSFQLS
Rank (after) [3]: 142
Rank (before) [4]: 154
Population: 0.01%

Sequence: WAQDALLKILYAKETM
P8_MyD88 Rank (after) [1]: 614
P8_MyD88 Rank (before) [2]: 1562

Sequence: WDCASNMEQFWDLPYY
Rank (after) [9]: 920
Rank (before) [10]: 1639

Sequence: WDFAGNWEQFWDRLSY
P8_MyD88 Rank (after) [5]: 772
P8_MyD88 Rank (before) [6]: 1576

Sequence: WDFASDMEQVWDRLYY
Rank (after) [3]: 444
Rank (before) [4]: 1582

Sequence: WDFASNMAQSWDRLYY
P8_MyD88 Rank (after) [11]: 246
P8_MyD88 Rank (before) [12]: 1595

Sequence: WDFASNMAQVWERLYY
Rank (after) [9]: 890
Rank (before) [10]: 1596

Sequence: WDFASNMEQFWDRLIRMIE
P8_MyD88 Rank (after) [7]: 529
P8_MyD88 Rank (before) [8]: 1611

Sequence: WDFASNMEQFWDRLLYA
P8_MyD88 Rank (after) [5]: 711
P8_MyD88 Rank (before) [6]: 1610

Sequence: WDFASNMEQLLDRLYY
Rank (after) [3]: 406
Rank (before) [4]: 1626

Sequence: WDFASNMEQLWERLYY
Rank (after) [9]: 1014
Rank (before) [10]: 1625

Sequence: WDFASNMNSFGIVCI
Rank (after) [9]: 974
Rank (before) [10]: 1628

Sequence: WDFASSTWWLRELLQIA
P8_MyD88 Rank (after) [11]: 272
P8_MyD88 Rank (before) [12]: 524

Sequence: WDFCEQYGTVLGSSVL
P8_MyD88 Rank (after) [7]: 555
P8_MyD88 Rank (before) [8]: 1569

Sequence: WDFGTAGKNPGSAWHH
Rank (after) [9]: 910
Rank (before) [10]: 1573

Sequence: WDYASNMEQFWDPLYY
P8_MyD88 Rank (after) [1]: 675
P8_MyD88 Rank (before) [2]: 1642

Sequence: WDYASNVELFWGRMNY
P8_MyD88 Rank (after) [1]: 586
P8_MyD88 Rank (before) [2]: 1640

Further lines, results first:

Rank (after) [3]: 480
Rank (before) [4]: 1518
Sequence: WALDLQWFYERLVSLI

P8_MyD88 Rank (after) [5]: 723
P8_MyD88 Rank (before) [6]: 1412
Sequence: WALDVLLQFLHARELF

P8_MyD88 Rank (after) [11]: 220
P8_MyD88 Rank (before) [12]: 377
Sequence: WALIELRTIMELWSGN

P8_MyD88 Rank (after) [11]: 258
P8_MyD88 Rank (before) [12]: 429
Sequence: WALNELLEIMQAKRDL

Rank (after) [3]: 414
Rank (before) [4]: 1546
Sequence: WALNELLKILHARELF

Rank (after) [9]: 905
Rank (before) [10]: 1547
Sequence: WALNELLKILQAKIFL

Population: 0.0108%
Sequence: WALNELLKILYANETM

Rank (after) [9]: 900
Rank (before) [10]: 1553
Sequence: WALNELQKILNAKETI

Rank (after) [3]: 445
Rank (before) [4]: 1549
Sequence: WALNELQQILHARELF

Rank (after) [3]: 109
Rank (before) [4]: 115
Population: 0.02%
Sequence: WALQELVKILQAKIFL

P8_MyD88 Rank (after) [11]: 195
P8_MyD88 Rank (before) [12]: 254
Sequence: WALSELVEILRARENM

P8_MyD88 Rank (after) [5]: 709
P8_MyD88 Rank (before) [6]: 1405
Sequence: WALVELLHIRHARELF

Rank (after) [9]: 949
Rank (before) [10]: 1406
Sequence: WALVKLLKILYANDTM

P8_MyD88 Rank (after) [7]: 490
P8_MyD88 Rank (before) [8]: 1403
Sequence: WALVVLLQILHARELF

P8_MyD88 Rank (after) [7]: 532
P8_MyD88 Rank (before) [8]: 1401
Sequence: WALYELLHILHARELF

Rank (after) [3]: 449
Rank (before) [4]: 878
Sequence: WAQEQDGFWVRLIEAL

Rank (after) [9]: 893
Rank (before) [10]: 1632
Sequence: WDFASKMEQFLDRLYY

P8_MyD88 Rank (after) [11]: 283
P8_MyD88 Rank (before) [12]: 1593
Sequence: WDFASNMAQFWDRRYY

P8_MyD88 Rank (after) [5]: 706
P8_MyD88 Rank (before) [6]: 1619
Sequence: WDFASNMEQFWIVCI

P8_MyD88 Rank (after) [7]: 550
P8_MyD88 Rank (before) [8]: 1585
Sequence: WDFASSSWALDELLRILY

P8_MyD88 Rank (after) [7]: 498
P8_MyD88 Rank (before) [8]: 1587
Sequence: WDFASTMEQLWARLYY

P8_MyD88 Rank (after) [5]: 758
P8_MyD88 Rank (before) [6]: 1570
Sequence: WDFSGNIEQFWDRLYY

P8_MyD88 Rank (after) [1]: 613
P8_MyD88 Rank (before) [2]: 1571
Sequence: WDFSGNMKQALDRLCY

P8_MyD88 Rank (after) [11]: 253
P8_MyD88 Rank (before) [12]: 434
Sequence: WEDVRINFLSHFLKEL

Source: publication PMC11714206, “Massively Parallel Screening of Toll/Interleukin‐1 Receptor (TIR)‐Derived Peptides Reveals Multiple Toll‐Like Receptors (TLRs)‐Targeting Immunomodulatory Peptides” (Advanced Science, 2024)
